# The supplement of paper PMC4862054
# Tests used:
# [1] = test system: CAL-51; details: 72 h
# Protocol: (§1)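 Drug sensitivity and resistance testing (DSRT) of breast cancer cell lines in 384-well plates, 5 concentrations in 10-fold dilutions over a compound-specific 10,000-fold range. After 72 h, cytotoxicity was read by CellTox Green fluorescence and viability by CellTiter-Glo luminescence (multiplexed), normalised to DMSO and benzethonium chloride controls. EC50 is the inflection point of the fitted dose-response curve (bottom asymptote free, so it can be relative for partial curves) and is censored at the highest tested concentration. Rows with DSS 0 (no meaningful response) were excluded.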
# [2] = test system: MDA-MB-231; details: 72 h
# Protocol: as §1
# [3] = test system: CAL-51; details: 72 h; remark: listed apart in the source
# How it was run: (§2)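 After 72 h on 384-well plates pre-loaded with compound in 5 µl medium, breast cancer cell lines seeded in 20 µl were assayed for viability with 2.5 µl CellTiter-Blue at 37 °C for 2 h, read at 560/590 nm. Each plate was quality-checked by Z'-factor and normalised to vehicle and a positive kill control. EC50 comes from the fitted percent-inhibition dose-response curve, censored at the top concentration, and rows scoring zero for drug sensitivity were left out.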
# [4] = test system: DU-4475; details: 72 h
# How it was run: as §2
# [5] = test system: CAL-85-1; details: 72 h
# How it was run: as §2
# [6] = test system: HDQ-P1; details: 72 h
# How it was run: as §2
# [7] = test system: MDA-MB-453; details: 72 h
# How it was run: as §2
# [8] = test system: CAL-51; assay: normalised response (% of control), CellTiter-Glo; higher = more viable cells (100 = DMSO, 0 = benzethonium chloride kill control); details: incubation time: 72 h
# How it was run: (§3)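 CellTox Green fluorescence (485/520 nm) and, after 10 min at room temperature, CellTiter-Glo luminescence were read from breast cancer cell lines incubated 72 h in 384-well plates. Cells were seeded as 20 µl suspension onto compound at 5 concentrations in 10-fold steps over a 10,000-fold range chosen per compound. Each plate was normalised to 0.1 % DMSO (100) and a positive kill control (0). Values are normalised signals, one per concentration.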
# [9] = test system: MCF-10A; assay: as above; details: incubation time: 72 h
# How it was run: as §3
# [10] = test system: MDA-MB-468; assay: as above; details: incubation time: 72 h
# How it was run: as §3
# [11] = test system: MFM-223; assay: as above; details: incubation time: 72 h
# How it was run: as §3
# [12] = test system: HCC1599; assay: as above; details: incubation time: 72 h
# How it was run: as §3
# [13] = test system: MDA-MB-436; assay: as above; details: incubation time: 72 h
# How it was run: as §3
# [14] = test system: CAL-85-1; assay: as above; details: incubation time: 72 h
# How it was run: as §3
# [15] = test system: HDQ-P1; assay: as above; details: incubation time: 72 h
# How it was run: as §3
# [16] = test system: Hs578T; assay: as above; details: incubation time: 72 h
# How it was run: as §3
# [17] = test system: HCC1143; assay: as above; details: incubation time: 72 h
# How it was run: as §3
# [18] = test system: CAL-148; assay: as above; details: incubation time: 72 h
# How it was run: as §3
# [19] = test system: MDA-MB-231; assay: as above; details: incubation time: 72 h
# How it was run: as §3
# [20] = test system: MDA-MB-453; assay: as above; details: incubation time: 72 h
# How it was run: as §3
# [21] = test system: CAL-120; assay: as above; details: incubation time: 72 h
# How it was run: as §3
# [22] = test system: CAL-51; assay: normalised viability (% of control), CellTiter-Blue; higher = more viable cells (about 100 = DMSO control); details: incubation time: 72 h
# Protocol: (§4)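 DSRT, CellTiter-Blue viability, 72 h incubation. Signal is normalised to DMSO and benzethonium chloride controls. Value is the normalised response at dose 7.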
# [23] = test system: DU-4475; assay: as above; details: incubation time: 72 h
# Protocol: as §4
# [24] = test system: CAL-85-1; assay: as above; details: incubation time: 72 h
# Protocol: as §4
# [25] = test system: HDQ-P1; assay: as above; details: incubation time: 72 h
# Protocol: as §4
# [26] = test system: CAL-148; assay: as above; details: incubation time: 72 h
# Protocol: as §4
# [27] = test system: MDA-MB-453; assay: as above; details: incubation time: 72 h
# Protocol: as §4
SMILES,"EC50, CellTiter-Blue viability [7] [nM]","EC50, CellTox Green [1] [nM]","EC50, CellTox Green [2] [nM]","EC50, CellTiter-Blue viability [3] [nM]","EC50, CellTiter-Blue viability [4] [nM]","EC50, CellTiter-Blue viability [5] [nM]","EC50, CellTiter-Blue viability [6] [nM]",further results
CCn1c(-c2nonc2N)nc2cnc(Oc3cccc(NC(=O)c4ccc(OCCN5CCOCC5)cc4)c3)cc21,–,48.1,2950,–,–,–,–,–
N#Cc1ccc(COC[C@H]2O[C@@H](n3c(NCc4ccc(Cl)c(Cl)c4)nc4c(N)ncnc43)[C@H](O)[C@@H]2O)cc1,–,–,–,–,2320,–,–,–
COc1cc(O)c2c(c1)/C=C/C[C@H](O)[C@H](O)C(=O)/C=C\C[C@H](C)OC2=O [(5Z)-7-Oxozeaenol],–,9350,864,–,–,–,–,–
CN(C)c1nc(N(C)C)nc(N(C)C)n1 [Altretamine],6880,–,–,–,–,9540,–,–
O=C(/C=C/c1cccc(S(=O)(=O)Nc2ccccc2)c1)NO [Belinostat],125,680,261,1170,478,666,488,–
Nc1cc(C(F)(F)F)c(-c2cc(N3CCOCC3)nc(N3CCOCC3)n2)cn1 [Buparlisib],–,2900,3580,–,–,–,–,–
C=C1C[C@@H]2[C@H](CC[C@]3(C)C(=O)CC[C@@H]23)[C@@]2(C)C=CC(=O)C=C12 [Exemestane],916,–,–,–,–,–,–,–
CCOC(=O)CCNc1cc(N2CCc3ccccc3CC2)nc(-c2ccccn2)n1 [GSK-J4],–,9960,11300,–,–,–,–,–
Cc1cc(Nc2cc(CN3CCOCC3)c3nc(C)c(Cc4ccc(Cl)cc4F)n3n2)n[nH]1 [Gandotinib],–,1390,–,–,–,–,–,–
O=C(Nc1ccncc1)C(=O)c1cn(Cc2ccc(Cl)cc2)c2ccccc12 [Indibulin],36.1,860,472,631,1530,201,72.5,–
COC(=O)c1ccc2c(c1)NC(=O)/C2=C(\Nc1ccc(N(C)C(=O)CN2CCN(C)CC2)cc1)c1ccccc1 [Nintedanib],–,2950,2190,–,–,–,–,–
CC(C)C[C@@H](C(=O)N[C@H](C(=O)OC1CCCC1)c1ccccc1)[C@H](O)C(=O)NO [Tosedostat] (1000 nM),–,–,–,–,–,–,–,normalised response [8]: 91%; normalised response [9]: 87.3%; normalised response [10]: 28.7%; normalised response [11]: 70.5%; normalised response [12]: 96.6%; normalised response [13]: 73.6%; normalised response [14]: 48.2%; normalised response [15]: 74.1%; normalised response [16]: 84.6%; normalised response [17]: 69%; normalised response [18]: 72.9%; normalised response [19]: 59.7%; normalised response [20]: 48.7%; normalised response [21]: 43.4%; normalised viability [22]: 77.1%; normalised viability [23]: 51%; normalised viability [24]: 77%; normalised viability [25]: 76.3%; normalised viability [26]: 67.8%; normalised viability [27]: 41.2%
COc1cc2c(NC3CCN(C(C)C)CC3)nc(N3CCC(F)(F)CC3)nc2cc1OCCCN1CCCC1 [UNC0642],–,–,2090,–,–,–,–,–
COCC[n+]1c2c(n(Cc3cnccn3)c1C)C(=O)c1ccccc1C2=O [YM155] (1000 nM),–,–,–,–,–,–,–,normalised response [8]: -0.05%; normalised response [9]: -0.7%; normalised response [10]: -0.57%; normalised response [11]: 10.7%; normalised response [12]: -0.01%; normalised response [13]: -0.32%; normalised response [14]: -0.48%; normalised response [15]: -0.17%; normalised response [16]: 25.6%; normalised response [17]: 0.6%; normalised response [18]: -0.23%; normalised response [19]: -0.22%; normalised response [20]: 9.91%; normalised response [21]: 3.05%; normalised viability [22]: 1.61%; normalised viability [23]: 1.98%; normalised viability [24]: 2.27%; normalised viability [25]: 0.25%; normalised viability [26]: 2.29%; normalised viability [27]: 7.19%

# The next lines start with results.
"EC50, CellTiter-Blue viability [7] [nM]",SMILES,"EC50, CellTox Green [1] [nM]","EC50, CellTox Green [2] [nM]","EC50, CellTiter-Blue viability [3] [nM]","EC50, CellTiter-Blue viability [4] [nM]","EC50, CellTiter-Blue viability [5] [nM]","EC50, CellTiter-Blue viability [6] [nM]",further results
851,Cc1cc(Nc2cc(CN3CCOCC3)c3nc(C)c(Cc4ccc(Cl)cc4F)n3n2)n[nH]1,–,–,2150,2130,2650,930,–
6400,COc1cc(OC2CCN(C)CC2)ccc1Nc1ncc2c(n1)n(C1CCCC1)c(=O)n2C [AZ 3146],768,–,1390,5180,3240,–,–
3180,COC(=O)c1ccc2c(c1)NC(=O)/C2=C(\Nc1ccc(N(C)C(=O)CN2CCN(C)CC2)cc1)c1ccccc1 [BIBF 1120],–,–,1400,6940,6440,5930,–
532,Nc1cc(C(F)(F)F)c(-c2cc(N3CCOCC3)nc(N3CCOCC3)n2)cn1 [BKM-120],–,–,922,2260,1310,1260,–
5030,COc1cc2ncnc(Nc3ccc(F)c(Cl)c3)c2cc1OCCCN1CCOCC1 [Gefitinib],–,–,–,–,–,3330,–
4750,CCc1c2c(nc3ccc(OC(=O)N4CCC(N5CCCCC5)CC4)cc13)-c1cc3c(c(=O)n1C2)COC(=O)[C@]3(O)CC [Irinotecan],1220,–,2940,2550,3510,> 10000,–
4580,Cc1ccc(NC(=O)c2ccc(CN3CCN(C)CC3)cc2)cc1Nc1nc(-c2cccnc2)cs1 [Masitinib],–,3220,–,–,–,–,–
2640,O=C(Nc1cccnc1)N1CCC(Cc2cccc(Oc3ccc(C(F)(F)F)cn3)c2)CC1 [PF-3845],–,–,5960,–,–,–,–
4.43,Cc1[nH]c2ccccc2c1CCNCc1ccc(/C=C/C(=O)NO)cc1 [Panobinostat],30.8,21.6,49.7,18.2,23.8,35,–
2740,CNC(=O)c1cc(Oc2ccc(NC(=O)Nc3ccc(Cl)c(C(F)(F)F)c3)c(F)c2)ccn1 [Regorafenib],–,–,2740,3000,–,–,–
0.59,CO[C@H]1C[C@@H]2CC[C@@H](C)[C@@](O)(O2)C(=O)C(=O)N2CCCC[C@H]2C(=O)O[C@H]([C@H](C)C[C@@H]2CC[C@@H](OP(C)(C)=O)[C@H](OC)C2)CC(=O)[C@H](C)/C=C(\C)[C@@H](O)[C@@H](OC)C(=O)[C@H](C)C[C@H](C)/C=C/C=C/C=C/1C [Ridaforolimus],–,–,1.65,1.13,0.17,3.88,–
2980,c1ccc2c(CCNc3ccc(Nc4ccncc4)cc3)c[nH]c2c1 [Serdemetan],285,8800,4940,4500,–,–,–
7240,CN(C)CCOc1ccc(/C(=C(/CCCl)c2ccccc2)c2ccccc2)cc1 [Toremifene],–,–,–,–,–,–,–
86.3,CC(C)C[C@@H](C(=O)N[C@H](C(=O)OC1CCCC1)c1ccccc1)[C@H](O)C(=O)NO [Tosedostat],35.5,52.9,6030,126,2940,268,–
4640,COc1cc2/c(=N/c3ccc(Br)cc3F)nc[nH]c2cc1OCC1CCN(C)CC1 [Vandetanib],–,–,2900,–,2590,191,–
6.99,COCC[n+]1c2c(n(Cc3cnccn3)c1C)C(=O)c1ccccc1C2=O [YM155],30.2,14.4,20.2,114,6.98,11.4,–
